Measured values as given in patent US12545677B2, “Compounds useful as factor XIa inhibitors” (JANSSEN PHARMACEUTICA NV, priority 2020, dated 2026).

Assays:
[1] = test system: Salmonella typhimurium strains TA98 and TA mixed; experiment: AMES II assay; format: cell-based; details: absence and presence of S9
Protocol: Biological Example 7: AMES II Assay
The aim of this study was to evaluate compound(s) and/or their metabolite(s) for their ability to induce reverse mutations in a gene of histidine-requiring Salmonella typhimurium strains to produce histidine-independent strains of these bacteria, in the absence and in the presence of a mammalian metabolic activation system.
Mutagenic potential was assessed by using an in-house adaptation of the Ames II Mutagenicity Assay kit from Xenometrics (Boulder, CA, USA). The strains TA98 and TA mixed (a combination of 6 strains) used in this study were able to detect frame-shift mutations and base pair substitutions respectively. […]
In the in vitro gene reverse mutation test, effects were determined by exposing a mutant strain of Salmonella typhimurium to various concentrations of the test compound. […] These colonies (revertants) are readily detectable due to their ability to grow on a histidine deficient medium. […] The revertant bacteria are detected by their ability to grow in the absence of the amino acid required by the parent test strain. […] The strains containing the plasmid, pKM101, are reverted by a number of mutagens that are detected weakly or not at all with the non plasmid bearing parent strains. […]

[2] = test system: mitochondrial respiration in HepG2 cells; experiment: Seahorse assay, mitochondrial respiration; format: cell-based; details: Homo sapiens, 0.3-100 μM, read-out: IC50, mitochondrial respiration as measured by spare respiratory capacity
Protocol: Biological Example 11: Seahorse Assay
The purpose of this assay was to investigate the effect of the compound of formula (I-A) on mitochondrial respiration in HepG2 cells using the Agilent Seahorse XFe96 analyzer. Cell viability was also determined in HepG2 cells in parallel to the Seahorse assay.
Measurement of mitochondrial respiration in HepG2 Cells: Compound doses were prepared in 100% DMSO and subsequently diluted in assay medium to achieve final solvent concentration of 0.10%. HepG2 cells were plated overnight in a Seahorse plate (Agilent Technologies, Santa Clara, California) at a density of 40,000 cells/well in EMEM containing 10% HI FBS and 1× Pen/Strep cell culture. […] Mitochondrial respiration, quantitated as oxygen consumption rate (OCR), was measured on an Agilent Seahorse XFe96 analyzer using the Seahorse Mito Stress test assay as per the manufacturer's protocol. […]
Data Analyses: Mitochondrial SRC (spare respiratory capacity) was calculated by subtracting the rate of the basal respiration from the rate of the maximal respiration. […] All experiments were run in triplicate and the mean and standard deviations were calculated for each test concentration. […]
IC50 values were determined by nonlinear regression and fitting of the dose response curves to a […] equation with variable slope (Hill coefficient): […]

## O=C1C=C(c2c(-n3cnnn3)ccc(Cl)c2F)C[C@H]2CC[C@@H](c3ncc(-c4ccnc(CO)c4F)[nH]3)N12 [Compound of formula (I-A), (3S,8aR)-7-(3-Chloro-2-fluoro-6-(1H-tetrazol-1-yl)phenyl)-3-(5-(3-fluoro-2-(hydroxymethyl)pyridin-4-yl)-1H-imidazol-2-yl)-2,3,8,8a-tetrahydroindolizin-5(1H)-one]
[1]
  AMES II assay result: negative
[2]
  IC50: > 100 µM
